The values that follow come from patent publication EP0302435A1, “Method for augmenting antibody-dependent cellular cytotoxicity” (NEORX CORPORATION, priority 1987, dated 1989).

This series concerns LS-180 target cells. The series can be described thus: PMN-ADCC target cell lysis assay (⁵¹Cr release). The format is cell-based, human. The following applies: for % Cytotoxicity: PMNs pretreated 30 min, E:T 100:1, 3 h ADCC assay; for % Cytotoxicity / augmentation of PMN-mediated IgG₃ ADCC: antibody NR-CO-04; for augmentation of PMN-mediated IgG₃ ADCC: activator pretreatment of PMNs, summary of Table 2. Here is the method:
Peripheral blood polymorphonuclear leukocytes (PMNs) were obtained from healthy normal human donors. Blood (150 cc) was withdrawn by venipuncture in heparinized tubes and mixed with an equal volume of 3% dextran in phosphate-buffered saline (PBS). After sedimentation at 1 x g for 10 min at room temperature, the leukocyte-rich plasma was layered on top of lymphocyte separation medium (LSM, Organon Technica, Durham, NC). PMNs were purified by treating the PMNs and red blood cell (RBC) pellet with RBC lysing solution (0.800% w/v NH₄Cl, 0.1% w/v KHCO₃, 37.0 mg tetrasodium EDTA in 100 ml water at pH 7.3). After incubating approximately 5 min at room temperature, the volume was increased 3X with PBS and the cells washed twice by centrifugation. After resuspension of the cells in RPMI-5% FCS, the PMNs were used in cytotoxicity assays or were incubated with response modifiers.
An appropriate number of target cells were labeled with 200 µCi ⁵¹Cr (⁵¹Cr-Na₂CrO₃; New England Nuclear, Boston, MA) for 2 h at 37°C, with gentle mixing every 15-30 min. The labeled cells were washed three times with 15 ml RPMI followed by centrifugation at 250 x g for 5 min at room temperature. The final pellet was resuspended in RPMI containing 5% FCS, counted, and diluted to an appropriate concentration.
In a typical assay, effector PMNs at different effector:target ratios were added to wells of a microtiter plate (Falcon Plastics, Oxnard, CA), except for those wells to be used for determination of total and spontaneous release of ⁵¹Cr from target cells. For GM-CSF augmentation, PMNs were generally treated within the microtiter plates by the addition of the lymphokine. The effector cells were either washed before the addition of antibody and target cells, or were left in the presence of lymphokine during the ADCC assay.
NR-CO-04 antibody was added to appropriate wells at a concentration of 1 µg/well (4 µg/ml), and the microtiter plate was then incubated at 37°C for 3 h. […]
Wells used for determination of spontaneous ⁵¹Cr release received labeled target cells alone in 200 µl of RPMI-5% FCS; the wells used for determination of total ⁵¹Cr release received labeled target cells and 200 µl 1.0% NP-40.
After […] incubation, the microtiter plate was centrifuged at 250 x g for 5 min at room temperature, and 125 µl of supernatant was transferred from each well into a separate 12 x 75 mm glass tube. Each tube was then assayed for ⁵¹Cr release with a Beckman 5000 gamma counter.
PMN-ADCC assays were performed in triplicate, according to the procedure described in Example I.E., supra. The % lysis (or percent specific release) is indicative of the level of ADCC of target cells. Test release is the amount of release in wells containing effector cells and target cells.

In the case of `CCCCCCCCCCCCCC(=O)O[C@@H]1[C@@H](C)[C@@]2(O)[C@@H](C=C(CO)C[C@]3(O)C(=O)C(C)=C[C@@H]23)[C@@H]2C(C)(C)[C@]12OC(C)=O` [PMA, phorbol myristate acetate], the “augmentation of PMN-mediated IgG₃ ADCC” value is “less effective than GM-CSF”. For the same compound, where the note is “concentration not given”, the “% Cytotoxicity” value stood at 18.8 ± 0.6%.
With fMET-Leu-Phe peptide [fMLP], the “augmentation of PMN-mediated IgG₃ ADCC” value was “less effective than GM-CSF”. For the same compound, where the note is “10⁻⁷ M”, the “% Cytotoxicity” value was determined as 16.2 ± 0.8%. Further, the “% Cytotoxicity” value (10⁻⁸ M) was found to be 23.7 ± 1.2%. For the same compound, the “% Cytotoxicity” value (10⁻⁹ M) is 15.6 ± 0.8%.
In the case of `CC1=C(/C=C/C(C)=C/C=C/C(C)=C/C=O)C(C)(C)CCC1` [Retinal], where the note is “dose-dependent, 1 to 100 μM retinal, summary of Table 4”, the “GM-CSF augmentation of PMN-ADCC” value is “abrogated”. In addition, the “low level of PMN-ADCC observed in the absence of GM-CSF stimulation” value (dose-dependent, summary of Table 4) is given as “further depressed”.
